pIC50: −log10 of the molar value.
What was measured:
[1] = test system: Jurkat IL-2; assay: Jurkat IL-2 induction by Compound A; assay type: cell-based
[2] = test system: TNF; assay: TNF inhibition by Compound A; assay type: cell-based
[3] = test system: pRb; assay: pRb phosphorylation in H929 cells (Western blot); assay type: cell-based
[4] = test system: T cells; assay: Ubiscan ubiquitinated peptide quantification in T cells; assay type: cell-based
Source text: The effects of lenalidomide and pomalidomide on protein ubiquination were investigated using CST Ubiscan technology. Treated samples were sent to Cell Signaling Technology for ubiquinated peptide enrichment and quantification by LC/MS/MS.

[5] = test system: H929 cells; assay: Cell cycle progression (cells in S phase) in siRNA-transfected H929 cells; assay type: cell-based; settings: 72 h treatment
Experimental: The effect of CRBN in H929 cells was also evaluated. H929 cells were transfected with mock, negative control siRNA and CRBN-siRNA-7 for 24, 48, 72 and 96 h. Cells were treated 24 h after transfection with DMSO (0.1%), pomalidomide (1 μM), lenalidomide (10 μM) or 3-(5-amino-2-methyl-4-oxo-4H-quinazolin-3-yl)-piperidine-2,6-dione (“Compound B”) for 1, 2, 3 days and the effect on cell cycle and proliferation investigated. Lenalidomide, pomalidomide and Compound B induced a delay of cell cycle progression, measured as the decrease of the number of cells in S phase, in control mock and negative control siRNA-transfected cells after 72 h treatment (FIG. 2C). Knockdown of CRBN markedly abrogated immunomodulatory drugs-induced delay in cell cycle progression in H929 cells (FIG. 2C) from of 50 to 4% for lenalidomide, from 70 to 15% for pomalidomide, and from 65 to 22% for Compound B.

[6] = test system: IRF4; assay: IRF4 protein level in H929 cells (Western blot); assay type: cell-based
Source text: In H929 cells, the cell cycle arrest in G1 phase by the drugs coincides with a reduction of tumor suppressor, pRb, phosphorylation and the oncogene and myeloma survival factor IRF4.

[7] = test system: IRF4; assay: IRF4 protein expression in ABC-DLBCL cells (Western blot); assay type: cell-based; settings: OCI-Ly3 cells; 1-3 day treatments
Experimental: (§1) Cells were treated with test compounds or 0.1% DMSO for indicated times. Following incubation, cells were collected, pelleted with centrifugation, and immediately lysed in 0.1 ml lysis buffer containing 10 mM Tris-HCl pH 8.0, 10 mM EDTA, 150 mM NaCl, 1% NP-40, 0.5% SDS, 1 mM DTT, 1 mM Na3VO4, plus Complete protease inhibitor cocktail (Roche Applied Science, Indianapolis, Ind.), then processed with a Qiashredder™ (Qiagen, Valencia, Calif.) for 1 minute and frozen on dry ice. Samples were diluted with 6×SDS sample buffer and then boiled for 5 min. Approximately 30 μl of this mixture was loaded per lane on a Criterion Precast 4-12% Tris-HCl gel (Bio-Rad, Hercules, Calif.), electrophoresed, and transferred to nitrocellulose membranes (Bio-Rad, Hercules, Calif.). The membranes were blocked for 1 hour at room temperature using blocking buffer (LI-COR Biosciences, Lincoln, Nebr.), then incubated overnight at 4° C. with antibodies against either BCL-10, IRF4, CRBN or β-actin. Membranes were washed and incubated with IRDye Secondary Antibodies (1:30,000) for 1 hour at room temperature. A standard protocol was then followed for signal detection, using the Odyssey® Infrared Imaging System and software (LI-COR Biosciences, Lincoln, Nebr.).
To understand the molecular mechanism of lenalidomide on ABC-DLBCL cells, the effects of lenalidomide on IRF4 expression in these cells were investigated. […] Lenalidomide-induced decrease of IRF4 expression occurred as early as 1 day of drug treatment, with similar kinetics to that of the inhibitors (zVRPR-fmk and LY-333,531, respectively) of MALT1 and PKCβ, two key enzymes involved in NF-κB activation upon BCR engagement in B cells.

[8] = test system: CARD11-BCL-10-MALT1 (CBM) complex; assay: MALT1-induced BCL-10 cleavage (CBM complex activity) in ABC-DLBCL cells; assay type: cell-based; settings: OCI-Ly3 cells
Experimental: as §1
This mutation has been reported to cause constitutive formation and activation of CARD11-BCL-10-MALT1 (CBM) complex of BCR signaling pathway, leading to NF-κB overactivation in lymphoma cells. See Lenz, G., et al., Science 2008, 319: 1676-9; Thome, M. et al., Cold Spring Harb Perspect Biol. 2010; 2: a003004. To investigate the potential involvement of CBM complex in lenalidomide-induced IRF4 inhibition in these cells, the effect of lenalidomide on the complex activity was examined by measuring MALT1 paracaspase enzymatic activity. MALT1 is activated upon association with BCL-10 and CARD11 to form active CBM complex and then cleaves its binding partners, such as BCL-10.

[9] = biological target: CRBN (Homo sapiens, UniProt Q96SW2); assay: Binding of compounds to CRBN
[10] = test system: U266B1 cells; assay: Gene expression profile by microarray in U266B1 cells; assay type: cell-based; settings: negative control siRNA-transfected U266B1 cells; pomalidomide 1 μM, lenalidomide 10 μM; ±1.7 fold, P<0.05
Experimental: Gene expression profile using microarray technology identified 759 or 609 genes differentially modulated in negative control siRNA-transfected U266B1 cells treated with pomalidomide (1 μM) or lenalidomide (10 μM) compared to DMSO treated control (±1.7 fold; P<0.05 ANOVA p-value) (FIGS. 5A & 5B).

[11] = test system: p21^WAF-1; assay: p21WAF-1 mRNA and protein levels in U266B1 cells; assay type: cell-based; settings: U266B1, control mock and negative control siRNA-transfected cells; pomalidomide 1 μM, lenalidomide 10 μM
Experimental: To further investigate the effects of CRBN on the cell cycle arrest induced by drugs we used RT-PCR and Western blot analysis to measure the levels of key cell cycle and apoptotic regulators. U266B1 cells were transfected with mock, negative control siRNA, CRBN-siRNA-7 and CRBN-siRNA-11 for 24, 48, 72 and 96 h (FIG. 3A). Cells were treated 24 h after transfection with DMSO (0.1%), pomalidomide (1 μM) and lenalidomide (10 μM) for 1, 2, 3 days and the effect on mRNA and protein levels of the cyclin-dependent kinase (CDK) inhibitor p21^WAF-1 were evaluated. It has been shown that lenalidomide- and pomalidomide-induced cell cycle arrest is dependent on up-regulation of p21^WAF-1 in […]. […] However, knockdown of CRBN prevents the induction of p21^WAF-1 indicating the successful abrogation of G1 arrest and renewal of S phase progression (FIGS. 3C & 3D).

[12] = test system: CRBN; assay: CRBN mRNA and protein expression after drug treatment (RT-PCR, Western blot); assay type: cell-based; settings: H929 and U266B1 cells; pomalidomide 1 μM, lenalidomide 10 μM
[13] = test system: U266B1 cells; assay: Cell cycle progression (cells in S phase) in siRNA-transfected U266B1 cells; assay type: cell-based; settings: control mock and negative control siRNA-transfected cells; average of 3 days of treatment; pomalidomide 1 μM, lenalidomide 10 μM
Experimental: Drugs such as lenalidomide and pomalidomide have direct anti-proliferative activity against MM cells by inducing cell cycle arrest in G1 phase, followed by a decrease in viability. To study the role of CRBN in lenalidomide and other drugs anti-proliferative activities, H929 and U266B1 cells, two sensitive myeloma lines, were transfected with CRBN-siRNAs or control siRNAs for 24, 48, 72 and 96 hours. Cells were treated 24 h after transfection with DMSO (0.1%), pomalidomide (1 μM) and lenalidomide (10 μM) for 1, 2, 3 days to evaluated the compound effect on CRBN protein, mRNA expression and the effect on cell cycle and proliferation. […] CRBN down regulation was confirmed by RT-PCR and Western blot using the CRBN70 antibody (FIG. 1).
Knockdown of CRBN markedly abrogated the lenalidomide and pomalidomide-induced delay in cell cycle progression in U266B1 cells. Id.

[14] = test system: U266; assay: Ubiscan ubiquitinated peptide quantification in U266; assay type: cell-based
Source text: The effects of lenalidomide and pomalidomide on protein ubiquination were investigated using CST Ubiscan technology. Treated samples were sent to Cell Signaling Technology for ubiquinated peptide enrichment and quantification by LC/MS/MS. […] In the MG132 combo, more ubiquinated peptides are observed (compared with their controls). […] These peptides correspond to 176 unique proteins. Top few groups are: nucleosome, chromatin, protein-DNA complex assembly, Histone H2A. Among the 176 proteins, we found five proteins that belong to “ubiquitin-protein ligase activity” category, they are MDM2, HERC2, UBE2D3 (only by pomalidomide), UBE2N (lenalidomide only), UBE2M (both). Results for hits categorized by conditions are shown in FIGS. 8 & 9 (without MG132) and FIGS. 10 & 11 (with MG132).

[15] = test system: poly-ubiquitin chains; assay: Global polyubiquitination by immunofluorescence in H929 cells; assay type: cell-based; settings: 1 μM, 30 minutes
Experimental: Specific antibodies for poly-ubiquitin chains were used to study the effect of immunomodulatory drugs on global levels of ubiquitination. H929 cells were treated with lenalidomide (1 μM), pomalidomide (1 μM) or proteasome inhibitor MG132. After 30 minutes cells were process for immunofluorescence. Global levels of K63-linked polyubiquitination were quantified by Cellomics.

[16] = H929 cells with knockdown of CRBN
[17] = control mock and negative control siRNA-transfected H929 cells

CRBN (Homo sapiens, UniProt Q96SW2), sequence (Q96SW2 whole entry): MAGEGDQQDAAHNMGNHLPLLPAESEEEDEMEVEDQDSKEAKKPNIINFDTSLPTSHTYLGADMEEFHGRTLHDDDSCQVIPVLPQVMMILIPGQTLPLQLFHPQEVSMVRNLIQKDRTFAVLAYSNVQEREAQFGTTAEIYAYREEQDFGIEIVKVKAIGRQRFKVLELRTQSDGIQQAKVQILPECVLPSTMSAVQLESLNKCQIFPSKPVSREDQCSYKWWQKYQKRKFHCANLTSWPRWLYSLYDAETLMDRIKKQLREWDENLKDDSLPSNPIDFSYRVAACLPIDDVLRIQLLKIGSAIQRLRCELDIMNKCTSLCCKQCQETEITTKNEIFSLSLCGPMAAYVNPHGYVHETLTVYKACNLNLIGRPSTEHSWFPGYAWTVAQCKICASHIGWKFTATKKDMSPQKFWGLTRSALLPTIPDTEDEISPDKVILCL

## Cl.NCCC(=O)NCc1cccc2c1C(=O)N(C1CCC(=O)NC1=O)C2=O (centres unmarked) [Compound A]
[1]
  Jurkat IL-2 EC200: 3.47 µM
[2]
  pIC50: 6.21

## Cc1nc2cccc(N)c2c(=O)n1C1CCC(=O)NC1=O (centres unmarked) [Compound B, 3-(5-amino-2-methyl-4-oxo-4H-quinazolin-3-yl)-piperidine-2,6-dione]
[3]
  phosphorylation of pRB: decreased
[4]
  Ub-proteins increased in abundance: IKZF3, RPL19, PCM1 and NEDD8
  proteins decreased in abundance: GNB2L1 and HNRNPR
  ubiquinated peptides of greater abundance vs. DMSO control: SECTM1 and ZC3H15
[5]; [16]
  delay in cell cycle progression (decrease of the number of cells in S phase): 22%
[5]; [17]
  delay in cell cycle progression (decrease of the number of cells in S phase): 65%
[6]
  total level of protein IRF4: decreased

## CN(C)C[C@@H]1CCn2cc(c3ccccc32)C2=C(C(=O)NC2=O)c2cn(c3ccccc23)CCO1 [PKCβ inhibitor, LY-333,531]
[7]
  IRF4 levels: neither lenalidomide nor the PKCβ inhibitor had any appreciable effect
[8]
  BCL-10 cleavage: neither the PKCβ inhibitor nor lenalidomide had any effect

## C[C@]1(N2C(=O)c3cccc(N)c3C2=O)CCC(=O)NC1=O [S-methyl-pomalidomide]
[9]
  affinity for CRBN (enantiomers compared): greater affinity for CRBN than R-methyl-pomalidomide

## Nc1cccc2c1C(=O)N(C1CCC(=O)NC1=O)C2=O (centres unmarked) [pomalidomide, 4-amino-2-(2,6-dioxopiperidin-3-yl)-1H-isoindole-1,3-dione]
[3]
  phosphorylation of pRB: decreased
[10]
  genes differentially modulated compared to DMSO treated control: 759 genes
[11]
  p21 level: up-regulated
[5]; [16]
  delay in cell cycle progression (decrease of the number of cells in S phase): 15%
[5]; [17]
  delay in cell cycle progression (decrease of the number of cells in S phase): 70%
[12]
  mRNA and protein expression of CRBN: affected neither mRNA nor protein expression of CRBN significantly
[13]
  delay of cell cycle progression, measured as the decrease of the number of cells in S phase: 50%
[14]
  Ub-proteins increased in abundance: IKZF3, RPL19, PCM1 and NEDD8
  proteins decreased in abundance: GNB2L1 and HNRNPR
[15]
  K-63-linked ubiquitination: but not K-63-linked ubiquitination
  total K48-linked polyubiquitination: decrease
[6]
  total level of protein IRF4: decreased

## O=C1NC(=O)c2ccccc21 [pthalimide]
[9]
  binding to CRBN: did not

## zVRPR-fmk [MALT1 inhibitor]
[7]
  IRF4 levels: complete inhibition

From patent US10047151B2, “Methods for the treatment of cancer and inflammatory diseases using cereblon as a predictor” (Celgene Corporation, priority 2011, dated 2018)
